Where two headings read alike, the source gives them in different places.
What was measured:
RAW-Difluo™ mLC3 Cells = experiment: Autophagy induction (puncta formation) in RAW-Difluo mLC3 reporter cells; format: cell-based, murine; conditions: 8 hours
Procedure: The ability of the CDNs of the present invention, to activate STING-dependent autophagy induction was measured using the murine autophagy reporter cell line obtained directly from InvivoGen.
RAW-Difluo™ mLC3 Cells are autophagy reporter cells derived from the murine RAW 264.7 macrophage cell line, a physiologically relevant cell line. They express an RFP::GFP::LC3 fusion protein, RFP-GFP-LC3, in which the N-terminus of murine LC3 is fused to two fluorescent reporter proteins: a RFP (acid-stable) and a GFP (acid-sensitive). In these cells, the RFP-GFP pair enables monitoring of autophagic flux in real time by detecting the appearance of green (GFP-LC3) and/or red (RFP-LC3) puncta by fluorescence microscopy.
Approximately 50,000 cells (500 µL) per well of 24-well plates were seeded 24 h before treatment. The next day, the cells were treated either with a solution containing a CDN at one of three different concentrations (1 µg/mL, 3 µg/mL or 10 µg/mL) or with Rapamycin at 25 µM, or were left untreated. The plates were incubated at 37 °C in a CO2 incubator for 8 hours. Fluorescence intensity and puncta formation was monitored at λexc = 480 nm and λem = 505 nm.

IRF pathway [1] = molecular target: T1, IRF pathway (Homo sapiens, UniProt Q86WV6); experiment: ISG54 (IRF pathway) Lucia reporter assay in THP-1-Dual cells, Type I IFN induction; format: cell-based
T1 sequence (Q86WV6 whole entry): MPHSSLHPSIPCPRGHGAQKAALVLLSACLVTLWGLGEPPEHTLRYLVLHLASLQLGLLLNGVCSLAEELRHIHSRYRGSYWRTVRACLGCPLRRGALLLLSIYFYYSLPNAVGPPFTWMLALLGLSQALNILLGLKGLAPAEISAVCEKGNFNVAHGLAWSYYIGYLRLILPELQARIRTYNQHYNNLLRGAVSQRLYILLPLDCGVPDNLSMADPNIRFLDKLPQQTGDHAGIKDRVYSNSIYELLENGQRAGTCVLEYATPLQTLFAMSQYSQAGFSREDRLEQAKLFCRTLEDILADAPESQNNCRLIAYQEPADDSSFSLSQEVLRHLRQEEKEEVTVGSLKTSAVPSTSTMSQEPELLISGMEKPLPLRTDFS
Source text: The IRF pathway has been investigated by using the two following ISG reporter cell lines obtained directly from InvivoGen. They are described here and provided with their corresponding InvivoGen catalog code.

NF-κB pathway = NF-κB pathway (Homo sapiens, UniProt Q86WV6); experiment: NF-κB SEAP reporter assay in THP1 Dual cells; format: cell-based
NF-κB pathway, sequence (Q86WV6 whole entry): as above

STING = experiment: STING-dependent cytokine induction, overall activity in words (THP1 Dual in vitro and whole blood ex vivo, Tables 2 to 4); format: cell-based, human; conditions: comment on Tables 2 and 3
Source text: (§1) . The ex vivo (whole blood assay) cytokine-induction activity of a representative set these cyclic dinucleotides is reported here with the same protocol described in Example 2.2.
as §1, §1

IRF pathway [2] = molecular target: T1, IRF pathway; experiment: ISG54 reporter assay in THP-1-Dual KO-STING cells; format: cell-based; conditions: THP1-Dual KO-STING cells (Figures 2A and 2B)
Source text: THP-1-Dual™-KO-STING (InvivoGen catalog code: thpd-kostg): These cells were generated from the human monocyte THP-1-Dual™, through stable homozygote knockout of the STING gene. Bialielic STING knockout was verified by functional assays, PCR and DNA sequencing.

[3] = tested on: Panc02 (murine pancreatic tumor cell line); experiment: Murine orthotopic Panc02 pancreatic cancer model, i.p. monotherapy; format: in vivo, mouse; conditions: for final mean tumor volume: Panc02, 1 mg/Kg i.p. once daily, 4 days a week for 3 weeks; for final mean tumor volume / incidence of metastasis: day 28; for tumor growth / incidence of metastasis: Panc02, 1 mg/Kg i.p.; for tumor growth: compared with control group
Source text: • Species evaluated: mouse • Tumor model: Panc02 (murine pancreatic tumor cell line) • Treatments tested: CL735 and CL742 (monotherapy) • Clinical parameters evaluated: tumor volume, tumor weight and incidence of metastasis • Administration routes evaluated: intraperitoneal (i.p.) injection
On Day 1, […] (C57BL/6; male) received an orthotopic injection of Panc02 tumor cells (1 x 106) in the pancreas. On Day 8, the mice were then divided into two groups of eight each (treated groups) and one group of five (control group). Each group received a different treatment, as outlined below: • Group 1 (control): saline (by i.p. injection) once daily, 4 days a week for 3 weeks; • Group 2: CL735 at 1 mg/Kg (by i.p. injection) once daily, 4 days a week for 3 weeks; • Group 3: CL742 at 1 mg/Kg (by i.p. injection) once daily, 4 days a week for 3 weeks
Left: Weight of individual Panc02 tumors at day 28 by treatment group. Right: Mean tumor weight at day 28, sd and sem for each group. • Figure 9. Left: Volume of individual Panc02 tumors at day 28 by treatment group. Right: Mean tumor volume at day 28, sd and sem for each group. • Figure 10. Incidence of metastasis in a murine model of Panc02 tumors. The mice were treated with saline (control), CL735 or CL742 monotherapies and metastases number was recorded at day 28. On the right, table indicated the mean of metastases number on animals that have survived by day 28, sd and sem for each group.

[4] = tested on: B16 (murine melanoma tumor cell line); experiment: Murine subcutaneous B16 melanoma model, i.t. monotherapy; format: in vivo, mouse
Source text: • Species evaluated: mouse • Tumor model: B16 (murine melanoma tumor cell line) • Treatments tested: CL742 and CL747 (monotherapy) • Clinical parameters evaluated: tumor volume • Administration routes evaluated: intratumoral (i.t.) injection
On Day 1, 15 mice (C57BL/6; male) received a subcutaneous injection of B16 tumor cells (1 x 105) on the right flank. On Day 13, the mice were then divided into two groups of five each (treated groups) and one group of five (control group). Each group received a different treatment, as outlined below: • Group 1 (control): saline (i.t. injection) at days 13 16 and 20; • Group 2: CL742 at 1.25 mg/Kg (i.t. injection) at days 13 16 and 20; • Group 3: CL747 at 1.25 mg/Kg (i.t. injection) at days 13 16 and 20
The tumor volume and animal weight were monitored every 2 days and animals were euthanized at Day 28 (Figure 11).

| Molecule | Autophagy level (RAW-Difluo™ mLC3 Cells; 1 µg/mL) | Autophagy level (RAW-Difluo™ mLC3 Cells; 3 µg/mL) | Autophagy level (RAW-Difluo™ mLC3 Cells; 10 µg/mL) | activity (ranking between compounds) (STING) | other results |
| --- | --- | --- | --- | --- | --- |
| O=c1[nH]cnc2c1ncn2[C@@H]1O[C@@H]2COP(=O)(O)O[C@H]3[C@@H](F)[C@H](n4cnc5c(=O)[nH]cnc54)O[C@@H]3COP(=O)(O)O[C@H]2[C@H]1F [CL626, reference compound] | ++ (50% of cells have puncta) | ++ (50% of cells have puncta) | ++ (50% of cells have puncta) |  |  |
| Nc1ncnc2c1ncn2[C@@H]1O[C@@H]2COP(=O)(O)O[C@@H]3[C@@H](F)[C@@H](COP(=O)(O)O[C@H]2[C@H]1F)O[C@H]3n1cnc2c(N)ncnc21 [CL710, (2',3')c-[xylo3'F3'dAMP-2'FdAMP]] |  |  |  |  | EC50 (IRF pathway [1]; THP1 Dual cells, ISG read-out): > 50 µM; EC50 (NF-κB pathway; NFκB read-out): > 50 µM |
| Nc1ncnc2c1ncn2[C@@H]1O[C@@H]2COP(=O)(O)O[C@@H]3[C@@H](F)[C@@H](COP(=O)(S)O[C@H]2[C@H]1F)O[C@H]3n1cnc2c(N)ncnc21 (some centres unmarked) [CL714, (2',3')c-[xylo3'F3'dAM(PS)-2'FdAMP]] |  |  |  | CL714 > CL766 | EC50 (IRF pathway [1]; THP1 Dual cells, ISG read-out): 4.84 µM; EC50 (NF-κB pathway; NFκB read-out): 14.6 µM |
| CC(C)(C)C(=O)OCn1cnc2c(ncn2[C@@H]2O[C@@H]3COP(=O)(O)O[C@H]4[C@@H](F)[C@H](n5cnc6c(=O)[nH]cnc65)O[C@@H]4COP(=O)(O)O[C@H]3[C@H]2F)c1=O [CL733, c-[2'FdI(POM)MP-2'FdIMP]] | +/- (10% of cells have puncta) | +/- (10% of cells have puncta) | + (25% of cells have puncta) |  |  |
| O=c1[nH]cnc2c1ncn2[C@@H]1O[C@@H]2COP(=O)(S)O[C@H]3[C@@H](F)[C@H](n4cnc5c(=O)[nH]cnc54)O[C@@H]3COP(=O)(S)O[C@H]2[C@H]1F (stereo partly drawn) [CL735, c-di[2'FdIMP(S)]] | ++ (50% of cells have puncta) | ++ (50% of cells have puncta) | ++ (50% of cells have puncta) |  | production of Type I interferons (IRF pathway [2]): did not induced production of Type I interferons; final mean tumor volume [3]: 150 +/- 69 mm3; tumor growth [3]: significant reduction in tumor growth; incidence of metastasis [3]: no metastases were found |
| O=c1[nH]cnc2c1ncn2[C@@H]1O[C@@H]2COP(=O)(O)O[C@@H]3[C@@H](F)[C@@H](COP(=O)(O)O[C@H]2[C@H]1F)O[C@H]3n1cnc2c(=O)[nH]cnc21 [CL742, (2',3')c-[3'F3'XylodIMP-2'FdIMP]] | +/- (10% of cells have puncta) | +/- (10% of cells have puncta) | + (25% of cells have puncta) |  | production of Type I interferons (IRF pathway [2]): did not induced production of Type I interferons; final mean tumor volume [3]: 47 +/- 29 mm3; tumor growth [3]: significant reduction in tumor growth; incidence of metastasis [3]: no metastases were found; mean tumor volume ([4]; B16, 1.25 mg/Kg i.t. at days 13 16 and 20, day 20): 779 +/- 816 mm3; tumor growth ([4]; B16, 1.25 mg/Kg i.t., compared with control group): significant reduction in tumor growth |
| CC(C)(C)C(=O)OCSP1(=O)OC[C@H]2O[C@@H](n3cnc4c(N)ncnc43)[C@H](F)[C@@H]2OP(=O)(SCOC(=O)C(C)(C)C)OC[C@H]2O[C@@H](n3cnc4c(=O)[nH]c(N)nc43)[C@H](O1)[C@H]2F (some centres unmarked) [CL751, (2',3')c-[3'F3'XylodGM(PS-POM)-2'FdAM(PS-POM)]] |  |  |  |  | EC50 (IRF pathway [1]; read-out: EC50 THP1 Dual ISG): 0.93 µM; EC50 (NF-κB pathway; read-out: EC50 THP1 Dual NFκB): 2.51 µM |
| CC(C)(C)C(=O)OCSP1(=O)OC[C@H]2O[C@@H](n3cnc4c(N)ncnc43)[C@H](F)[C@@H]2OP(=O)(SCOC(=O)C(C)(C)C)OC[C@H]2O[C@@H](n3cnc4c(N)ncnc43)[C@H](O1)[C@H]2F (some centres unmarked) [CL760, (2',3')c-[xylo3'F3'dAM(PS-POM)-2'FdAM(PS-POM)]] |  |  |  |  | EC50 (IRF pathway [1]; read-out: EC50 THP1 Dual ISG): 0.33 µM; EC50 (NF-κB pathway; read-out: EC50 THP1 Dual NFκB): 1.76 µM |
| Nc1nc(Cl)nc2c1ncn2[C@H]1C[C@@H]2OP(=O)(O)OC[C@H]3O[C@@H](n4cnc5c(=O)[nH]cnc54)[C@H](F)[C@@H]3OP(=O)(O)OC[C@H]2O1 [CL761, (3'3')c-(2CIdAMP-2'FdIMP)] |  |  |  | CL761 < CL760 |  |
| CC(C)(C)C(=O)OCn1cnc2c(ncn2[C@@H]2O[C@@H]3COP(=O)(O)O[C@H]4C[C@H](n5cnc6c(N)nc(Cl)nc65)O[C@@H]4COP(=O)(O)O[C@H]3[C@H]2F)c1=O [CL762, (3'3')c-[2CIdAMP-2'FdI(POM)MP]] |  |  |  | CL762 < CL760 |  |
| Nc1ncnc2c1ncn2[C@@H]1O[C@@H]2COP(=O)(S)O[C@@H]3[C@@H](F)[C@@H](COP(=O)(S)O[C@H]2[C@H]1F)O[C@H]3n1cnc2c(N)ncnc21 (some centres unmarked) [CL766, (2',3')c-[xylo 3'F3'dAM(PS)-2'FdAM(PS)]] |  |  |  |  | EC50 (IRF pathway [1]; THP1 Dual cells, ISG read-out): > 50 µM; EC50 (NF-κB pathway; NFκB read-out): > 50 µM |
| Nc1ncnc2c1ncn2[C@@H]1O[C@@H]2COP(=O)(O)O[C@@H]3[C@@H](F)[C@@H](COP(=O)(S)O[C@H]2[C@H]1F)O[C@H]3n1cnc2c(=O)[nH]cnc21 (some centres unmarked) [CL781, (2',3')c-[3'F3'XylodIMP-2'FdAM(PS)]] |  |  |  | CL781 >> CL764 |  |
| CC(C)(C)C(=O)OCSP1(=O)OC[C@H]2O[C@@H](n3cnc4c(=O)[nH]cnc43)[C@H](OP(=O)(O)OC[C@H]3O[C@@H](n4cnc5c(N)ncnc54)[C@H](F)[C@@H]3O1)[C@H]2F (some centres unmarked) [CL784, (2',3')c-[3'F3'XylodIMP-2'FdAM(PS-POM)]] |  |  |  | CL784 > CL781 |  |
| CO[C@H]1C[C@@H]2CC[C@@H](C)[C@@](O)(O2)C(=O)C(=O)N2CCCC[C@H]2C(=O)O[C@H]([C@H](C)C[C@@H]2CC[C@@H](O)[C@H](OC)C2)CC(=O)[C@H](C)/C=C(\C)[C@@H](O)[C@@H](OC)C(=O)[C@H](C)C[C@H](C)/C=C/C=C/C=C/1C [Rapamycin, reference compound] |  |  |  |  | Autophagy level (RAW-Difluo™ mLC3 Cells; 25 µM): ++++ (90% of cells have puncta) |
| O=c1[nH]cnc2c1ncn2[C@@H]1O[C@@H]2COP(=O)(O)O[C@H]3[C@@H](O)[C@H](n4cnc5c(=O)[nH]cnc54)O[C@@H]3COP(=O)(O)O[C@H]2[C@H]1O [cdiIMP, reference compound] | + (25% of cells have puncta) | ++ (50% of cells have puncta) | +++ (75% of cells have puncta) |  |  |
| (2',3')c-[3'F3'XylodIM(PS)-2'FdI(POM)MP] [CL746] | ++ (50% of cells have puncta) | ++ (50% of cells have puncta) | ++ (50% of cells have puncta) |  |  |

— patent EP3505527A1, “CYCLIC DINUCLEOTIDES FOR CYTOKINE INDUCTION” (Invivogen, priority 2017, dated 2019)
